This is an account of results in publication PMC4979595, “Pilot PET Study to Assess the Functional Interplay Between ABCB1 and ABCG2 at the Human Blood–Brain Barrier” (Clinical Pharmacology and Therapeutics, 2016).

Data set [1] can be described thus: Plasma protein binding by ultrafiltration. The following applies: similar in baseline and ABCB1 inhibition scans, high nonspecific filter binding.
Data set [2] in a line: Plasma time-activity curve AUC of radiotracers. The following applies: c.421CC.
Text: (§1) A whole brain gray matter region of interest was defined on individual magnetic resonance images acquired in all study participants (T1‐weighted Achieva 3.0T scanner; Philips Medical Systems, Best, The Netherlands) using the Hammersmith n30r83 3D maximum probability atlas of the human brain.43 In addition, the pituitary gland was manually delineated.
A short description of data set [3]: Radiolabeled metabolites / unchanged radiotracer in plasma during PET (solid-phase extraction). The following applies: 60 minutes after injection, c.421CC subjects.
For data set [4], the system named is ABCB1 and ABCG2 at the human BBB. Put plainly: PET brain distribution of radiotracers, baseline scan and scan during ABCB1 inhibition with tariquidar infusion. Conditions: for K 1 / k 2 / k 3 / k 4: 2T4K model; for K 1 / k 2 / k 3 / k 4 / V T (2T4K) / V T (Logan): whole brain; for whole brain V T (Logan) lower than V T (Logan) in the pituitary gland: c.421CC subjects.
Text: as §1

Data set [5] has the same test system. The following applies: in vivo.
Text: as §1
Data set [6] in a line: in vitro. The following applies: human, plasma.
For data set [7], the target named is T1, human ABCG2 (Homo sapiens, UniProt Q9UNQ0).
T1 construct: P. Borst and Dr. A. Schinkel (Netherlands Cancer Institute); host or cells: MDCK-II (MDCK-ABCG2)
T1 sequence (Q9UNQ0 1-655): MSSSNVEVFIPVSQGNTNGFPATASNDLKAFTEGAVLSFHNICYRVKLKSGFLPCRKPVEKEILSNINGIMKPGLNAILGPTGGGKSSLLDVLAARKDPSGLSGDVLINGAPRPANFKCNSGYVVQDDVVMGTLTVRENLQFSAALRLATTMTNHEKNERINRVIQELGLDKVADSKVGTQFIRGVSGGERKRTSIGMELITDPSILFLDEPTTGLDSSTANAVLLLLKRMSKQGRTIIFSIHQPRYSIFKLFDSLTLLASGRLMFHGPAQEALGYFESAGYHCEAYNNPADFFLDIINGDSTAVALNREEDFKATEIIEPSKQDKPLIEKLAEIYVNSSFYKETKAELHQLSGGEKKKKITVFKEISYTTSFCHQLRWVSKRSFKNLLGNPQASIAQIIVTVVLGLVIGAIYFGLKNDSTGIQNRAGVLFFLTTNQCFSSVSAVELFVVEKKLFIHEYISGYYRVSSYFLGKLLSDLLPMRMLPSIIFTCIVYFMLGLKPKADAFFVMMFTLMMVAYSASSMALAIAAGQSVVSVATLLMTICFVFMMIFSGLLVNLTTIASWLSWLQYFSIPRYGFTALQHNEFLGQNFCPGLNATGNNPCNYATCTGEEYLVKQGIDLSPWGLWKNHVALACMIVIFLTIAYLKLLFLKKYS
Put plainly: In vitro uptake assay in MDCK-ABCG2 cells: tariquidar inhibition of ABCG2-mediated transport. It is filed as cell-based. The following applies: for IC50: IC50 of tariquidar for inhibition of ABCG2 transport, 120 min uptake. As to the method: LLC‐PK1 cells transduced with human ABCB1 (LLC‐ABCB1) and MDCK‐II cells transduced with human ABCG2 (MDCK‐ABCG2) were kindly provided by Prof. P. Borst and Dr. A. Schinkel (Netherlands Cancer Institute, Amsterdam, Netherlands). Culturing of the cells and testing of vincristine sulfate resistance (0.64 μmol/L) for LLC‐ABCB1 cells and mitoxantrone resistance (20 μmol/L) for MDCK‐ABCG2 cells was performed as described previously.46
Cells were seeded with a density of 0.3 × 10^6 cells/cm^2 on 96‐well plates (white Isoplates for liquid scintillation counting, Perkin Elmer, Rodgau, Germany). Then 5–7 days after the cells reached 100% confluence, the experiment was initiated with 1‐hour preincubation at 37°C, 5% carbon dioxide, and 95% humidity, for which culture medium was replaced by serum‐free Opti‐MEM (Gibco/Life Technologies, Darmstadt, Germany). […] After 120 minutes (37°C, 5% carbon dioxide, 95% humidity), cells were transferred on ice, washed twice with ice‐cold phosphate‐buffered saline before lysis buffer (25 mmol/L Tris, pH 8, 50 mmol/L sodium chloride, 0.5% (w/v) deoxycholic acid, 0.5% (w/v) Triton X‐100) supplemented with complete protease inhibitor (Roche, Mannheim, Germany) was added and protein concentrations in the respective wells were determined by using the Pierce BCA Protein Assay kit (ThermoScientific, Pittsburgh, PA).
With Prism 6.0 software (GraphPad Software, La Jolla, CA), a sigmoidal model with variable slope was used to analyze concentration–response relationships by nonlinear regression.

Data set [8] is described as follows: Safety monitoring: adverse events during study participation. The format is in vivo, human. The following applies: relationship with tariquidar administration could not be excluded. As to the method:
During the PET study, heart rate and blood pressure were repeatedly measured and recorded. In addition, clinical laboratory blood and urine tests were performed. Adverse events were recorded.

Data set [9] addresses T2, human ABCB1 (Homo sapiens, UniProt P08183).
Details of data set [10]: method as in earlier work. Conditions: (R)-[^11C]verapamil group, no ABCG2 genotype available, data from previous study, cited from earlier work.
In data set [11] the test system is ABCB1 at the human BBB. On the set-up: method as in PMID 25669913. The following applies: tariquidar plasma concentration; previously estimated; read-out: in vivo IC50 for inhibition of ABCB1 transport of (R)-[^11C]verapamil at the human BBB; cited from earlier work.
Data set [12] addresses T2, human ABCB1. Put plainly: cell-based.
Data set [13] can be described thus: Tariquidar plasma concentrations during second PET scan (LC-MS/MS).

Values joined by “and” are separate entries in the source; they are usually repeats but may differ in a detail not shown here. Equal values may be shown once. Read-outs that look alike come from different tables or passages of the source. Marks after values point to notes of the source that are not given here.

T2 sequence (P08183 whole entry): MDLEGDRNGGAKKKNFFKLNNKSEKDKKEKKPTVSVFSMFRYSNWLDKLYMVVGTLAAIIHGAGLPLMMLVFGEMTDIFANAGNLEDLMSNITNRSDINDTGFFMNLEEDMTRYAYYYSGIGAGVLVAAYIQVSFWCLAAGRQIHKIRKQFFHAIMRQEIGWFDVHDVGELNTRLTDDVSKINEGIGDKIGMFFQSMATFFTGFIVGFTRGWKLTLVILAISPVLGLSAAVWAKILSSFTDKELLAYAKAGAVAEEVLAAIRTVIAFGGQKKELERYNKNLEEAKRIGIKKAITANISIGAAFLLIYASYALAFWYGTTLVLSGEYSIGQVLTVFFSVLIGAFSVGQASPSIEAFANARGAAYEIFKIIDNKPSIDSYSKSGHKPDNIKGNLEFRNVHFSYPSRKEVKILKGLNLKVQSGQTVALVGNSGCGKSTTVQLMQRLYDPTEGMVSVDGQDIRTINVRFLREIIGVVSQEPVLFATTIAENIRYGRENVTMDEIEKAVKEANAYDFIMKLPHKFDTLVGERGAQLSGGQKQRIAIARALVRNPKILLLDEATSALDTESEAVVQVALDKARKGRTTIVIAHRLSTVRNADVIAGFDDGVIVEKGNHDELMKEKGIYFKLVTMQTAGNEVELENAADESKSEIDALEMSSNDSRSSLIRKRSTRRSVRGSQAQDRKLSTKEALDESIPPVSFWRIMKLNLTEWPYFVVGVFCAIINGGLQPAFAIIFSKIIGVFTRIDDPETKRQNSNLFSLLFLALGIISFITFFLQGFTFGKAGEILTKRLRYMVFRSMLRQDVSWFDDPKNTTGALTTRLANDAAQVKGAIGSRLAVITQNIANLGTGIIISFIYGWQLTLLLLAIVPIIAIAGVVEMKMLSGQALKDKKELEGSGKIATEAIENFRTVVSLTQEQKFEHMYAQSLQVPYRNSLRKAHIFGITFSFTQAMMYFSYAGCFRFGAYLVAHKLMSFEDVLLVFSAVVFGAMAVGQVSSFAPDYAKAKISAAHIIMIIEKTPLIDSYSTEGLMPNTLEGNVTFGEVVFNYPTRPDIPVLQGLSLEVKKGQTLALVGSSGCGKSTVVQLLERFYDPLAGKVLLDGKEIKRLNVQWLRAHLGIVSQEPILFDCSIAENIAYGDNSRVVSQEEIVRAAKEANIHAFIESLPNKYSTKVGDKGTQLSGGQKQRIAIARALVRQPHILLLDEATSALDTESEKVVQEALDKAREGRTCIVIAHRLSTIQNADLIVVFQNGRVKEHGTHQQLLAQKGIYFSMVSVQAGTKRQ

Turning to `COc1cc2c(cc1OC)CN(CCc1ccc(NC(=O)c3cccc4c(=O)c5cccc(OC)c5[nH]c34)cc1)CC2` [[^11C]elacridar], the Plasma protein binding in [1] was over 99%. Moreover, in data set [2] (0 to 60 min), the “AUC ABCB1 inhibition (plasma time-activity curve)” value turned out to be 46.9 ± 8.0 SUV x min and the “AUC baseline (plasma time-activity curve)” value turned out to be 37.2 ± 6.2 SUV x min. Moreover, the “% change over baseline (plasma AUC)” value in [2] turned out to be 27 ± 12%. For the same compound, the “percentage of unchanged radiotracer in plasma” value in data set [3] (baseline scans) is reported as 94.6 ± 2.3%. The “percentage of unchanged radiotracer in plasma” value in data set [3] (second PET scan (tariquidar infusion)) is listed as 94.7 ± 1.1%. Further, in [4] (c.421CC ABCB1 inhibition), the “K 1” value is 0.013 ± 0.005 (8) mL/(g x min), the “k 2” value is listed as 0.302 ± 0.250 (31) 1/min, the “k 3” value was 0.198 ± 0.050 (21) 1/min and the “k 4” value is 0.016 ± 0.003 (13) 1/min. In addition, in data set [4] (c.421CC ABCB1 inhibition), the “V T (2T4K)” value is 0.676 ± 0.111 (6) and the “V T (Logan)” value is listed as 0.658 ± 0.098 (9). Also, in data set [4] (c.421CC baseline), the “K 1” value is 0.006 ± 0.002 (9) mL/(g x min), the “k 2” value is 0.135 ± 0.050 (33) 1/min, the “k 3” value is given as 0.148 ± 0.040 (22) 1/min and the “k 4” value is listed as 0.015 ± 0.004 (17) 1/min. Also, in data set [4] (c.421CC baseline), the “V T (2T4K)” value is reported as 0.492 ± 0.051 (9) and the “V T (Logan)” value is recorded as 0.478 ± 0.027 (6). Moreover, the “whole brain V T (Logan) lower than V T (Logan) in the pituitary gland” value in data set [4] (scan 1 (baseline)) was 13.2 ± 4.6 fold. Also, in data set [4] (scan 2 (ABCB1 inhibition)), the “whole brain V T (Logan) lower than V T (Logan) in the pituitary gland” value came out at 7.9 ± 2.1 fold. Further, the “baseline whole brain V T (Logan) lower in humans than in rats” value in [4] (comparison with a previous preclinical study) is about 2 fold. Moreover, the “V T (Logan) in the pituitary gland during tariquidar infusion as compared with baseline scans” value in data set [4] (pituitary gland) is on record as “not significantly different”. Also, the “increase in V T (Logan) in scan 2” value in data set [4] (single c.421CA subject with the highest increase (scanned with both radiotracers)) turned out to be 2.3 fold.

Regarding `COc1cc2c(cc1OC)CN(CCc1ccc(NC(=O)c3cc(OC)c(OC)cc3NC(=O)c3cnc4ccccc4c3)cc1)CC2` [[^11C]tariquidar], the “baseline whole brain V T (Logan) lower in humans than in rats” value in [5] (human compared with rat) is listed as about 2 fold. Further, in data set [5] (human), the “V T (Logan)” value is reported as 0.40 and the “increase in V T (Logan) in scan 2” value is recorded as 3.1 fold. In [6], the fraction unbound (as a rule, free concentration divided by total concentration) was under 0.01.

Take `COc1cc2c(cc1OC)CN(CCc1ccc(NC(=O)c3cc(OC)c(OC)cc3NC(=O)c3cnc4ccccc4c3)cc1)CC2` [tariquidar]: the IC50 (usually the midpoint of a concentration-inhibition curve) was 813 nM in [7] ([^3H]elacridar (1 nmol/L) as substrate); 310 nM in data set [7] ([^3H]tariquidar (1 nmol/L) as substrate); 17.1 nM in [9]; 2300 ± 1000 nM in data set [11]; 29.5 nM in [12]. The Hill slope in data set [7] ([^3H]elacridar as substrate) and in data set [7] ([^3H]tariquidar as substrate) was 1.1 throughout. Also, the “Adverse event: abdominal cramps and vomiting” value in data set [8] was “one”. Also, in data set [8], the “Adverse event: collapse” value is “four”. Moreover, in data set [8], the “Adverse event: dizziness” value was “two”. Also, the “Adverse event: dysgeusia” value in [8] was 10 subjects. For the same compound, the “Adverse event: headache” value in data set [8] was “three”. Moreover, the “Adverse event: phlebitis” value in [8] was “three”. Besides, the “Tariquidar concentration in plasma of individual subjects” value (shortened to “Tariquidar concentration in plasma”) was 3.76 µmol/L and 2.52 µmol/L and 4.11 µmol/L and 2.83 µmol/L and 3.38 µmol/L in data set [10] (end of PET); 3.61 µmol/L and 2.71 µmol/L and 3.88 µmol/L and 2.85 µmol/L and 2.56 µmol/L in data set [10] (middle of PET); 2.81 µmol/L and 1.70 µmol/L and 2.36 µmol/L and 1.91 µmol/L and 2.11 µmol/L in data set [10] (start of PET); 2.22 µmol/L in data set [13] (end of PET, [^11C]elacridar c.421CA); 2.45 µmol/L and 1.98 µmol/L and 2.58 µmol/L and 2.72 µmol/L and 4.03 µmol/L in data set [13] (end of PET, [^11C]elacridar c.421CC); 3.67 µmol/L and 3.18 µmol/L and 2.24 µmol/L and 3.08 µmol/L and 3.79 µmol/L in [13] (end of PET, [^11C]tariquidar c.421CA). Moreover, the “Tariquidar concentration in plasma” value in [13] (end of PET, [^11C]tariquidar c.421CC) was 2.71 µmol/L and 2.78 µmol/L and 3.13 µmol/L and 3.70 µmol/L; in [13] (middle of PET, [^11C]elacridar c.421CA), 2.23 µmol/L; in data set [13] (middle of PET, [^11C]elacridar c.421CC) it was 2.33 µmol/L and 2.55 µmol/L and 2.71 µmol/L and 2.43 µmol/L and 3.73 µmol/L; in data set [13] (middle of PET, [^11C]tariquidar c.421CA) it was 3.93 µmol/L and 3.55 µmol/L and 3.31 µmol/L and 2.86 µmol/L and 3.57 µmol/L; in data set [13] (middle of PET, [^11C]tariquidar c.421CC) it was 2.68 µmol/L and 2.09 µmol/L and 2.95 µmol/L and 2.70 µmol/L and 2.65 µmol/L; in [13] (start of PET, [^11C]elacridar c.421CA), 1.94 ^a µmol/L. The “Tariquidar concentration in plasma” value is 2.67 µmol/L and 1.83 µmol/L and 1.71 µmol/L and 2.74 µmol/L and 2.73 µmol/L in data set [13] (start of PET, [^11C]elacridar c.421CC); 3.70 µmol/L and 2.61 µmol/L and 2.87 ^a µmol/L and 2.47 µmol/L and 2.80 µmol/L in data set [13] (start of PET, [^11C]tariquidar c.421CA); 2.91 µmol/L and 2.17 µmol/L and 2.65 µmol/L and 2.67 µmol/L and 2.64 µmol/L in data set [13] (start of PET, [^11C]tariquidar c.421CC). In addition, the “Tariquidar plasma concentration during the PET scan (average of three determinations)” value in [13] ([^11C]elacridar group, c.421CC, i.v. infusion, total dose 5.7 ± 0.8 mg/kg) turned out to be 2.6 ± 0.5 µmol/L. Also, the “Tariquidar plasma concentration at the time of PET” value in data set [13] ([^11C]tariquidar group, c.421CA, i.v. infusion) is 3.2 ± 0.4 µmol/L.
